Results from article PMC11943482, “A Chalcone Synthase-like Bacterial Protein Catalyzes Heterocyclic C-Ring Cleavage of Naringenin to Alter Bioactivity Against Nuclear Receptors in Colonic Epithelial Cells” (Metabolites, 2025).

Molecular target: nuclear receptor 4A1 (NR4A1) (Homo sapiens, UniProt P22736)
Test: tryptophan fluorescence quenching with the isolated LBD ([…])
Format: binding

Sequence of nuclear receptor 4A1 (NR4A1) (P22736 360-598 limits assumed): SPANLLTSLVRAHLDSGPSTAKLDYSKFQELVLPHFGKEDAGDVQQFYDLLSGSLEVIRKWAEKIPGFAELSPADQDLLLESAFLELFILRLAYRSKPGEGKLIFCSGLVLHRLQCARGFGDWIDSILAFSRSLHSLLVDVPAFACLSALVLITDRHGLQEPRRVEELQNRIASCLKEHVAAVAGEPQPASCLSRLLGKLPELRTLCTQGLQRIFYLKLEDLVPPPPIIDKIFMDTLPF

Compound: O=C1C[C@@H](c2ccc(O)cc2)Oc2cc(O)cc(O)c21 [naringenin]
- Kd: 4.5 µM
